Results published in article PMC2073845, “Tracer Studies of Potential Radiosensitizing Agents” (British Journal of Cancer, 1956).
Read-outs that look alike come from different tables or passages of the source.

Columns and labels:
[1] = Differential absorption ratio (D.A.R.) of organs of rats carrying a Walker carcinoma after injection of the radio-labelled compound
From the text: (§1) OPO3Na2 OPO3Na2 OP03H2 ICOH3 CH3 CH3 131I I 82Br CH3 1311 OPO3Na2 OPO3Na2 OP03H2 I II III METHODS AND MATERIALS Counting.-y-emission from the halogens was the basis of detection. The simple technique of placing samples of the organs under a shielded counter could not be used since variations in the thickness of the organs would vary the sample- counter distance, leading to considerable counting errors. This type of error was reduced by locating the sample on a thin aluminium tray midway between two G-10-Pb glass-covered Geiger-Muller tubes in copper sheaths placed 10 cm. apart in a castle of 2 inch lead and connected in parallel to the same scaler. The 50 D. H. MARRIAN AND D. R. MAXWELL sensitivity of the arrangement was about 9000 c.p.m./,tC 52Br. Samples and backgrounds were counted to a standard error of 5 per cent or less. […] The hydroscopic salt (II) was dissolved in 0 9 per cent saline and the concentration determined by ultraviolet spectroscopy (absorption maxima at 232m,u. (M = 70,000) and 290 m,u. (M = 5,800) in 0-01N- hydrochloric acid). […] The purity of the solution was determined by paper electrophoresis at pH 7 (Markham and Smith, 1952). This clearly separated the organic compound from iodide ion, the former being detected by ultraviolet photography and the latter by spraying with starch solution and exposure to chlorine vapour. […]

[2] = Radioactivity in blood, plasma and urine as percentage of injected dose, tumour-bearing rats
From the text: OPO3Na2 OPO3Na2 OP03H2 ICOH3 CH3 CH3 131I I 82Br CH3 1311 OPO3Na2 OPO3Na2 OP03H2 I II III METHODS AND MATERIALS Counting.-y-emission from the halogens was the basis of detection. The simple technique of placing samples of the organs under a shielded counter could not be used since variations in the thickness of the organs would vary the sample- counter distance, leading to considerable counting errors. This type of error was reduced by locating the sample on a thin aluminium tray midway between two G-10-Pb glass-covered Geiger-Muller tubes in copper sheaths placed 10 cm. apart in a castle of 2 inch lead and connected in parallel to the same scaler. The 50 D. H. MARRIAN AND D. R. MAXWELL sensitivity of the arrangement was about 9000 c.p.m./,tC 52Br. Samples and backgrounds were counted to a standard error of 5 per cent or less. […] The hydroscopic salt (II) was dissolved in 0 9 per cent saline and the concentration determined by ultraviolet spectroscopy (absorption maxima at 232m,u. (M = 70,000) and 290 m,u. (M = 5,800) in 0-01N- hydrochloric acid). […] Exposure to chlorine vapour caused red spots of bromofluoroscein to appear on a yellow background. […] The iodinated compound (III), was dissolved in 0 9 per cent saline and neutralised by addition of sodium hydroxide solution. The purity of the solution was determined by paper electrophoresis at pH 7 (Markham and Smith, 1952). This clearly separated the organic compound from iodide ion, the former being detected by ultraviolet photography and the latter by spraying with starch solution and exposure to chlorine vapour. […] It was dissolved in 0 9 per cent saline before injection. […] C. for 4 hours at pH 4, 6, 7 and 9 and the reaction mixtures examined by paper electrophoresis. […] The radioactivity of these planchettes when the organs were being counted was used to calculate the differential absorption ratio (D.A.R.), (Marrian and Maxwell, 1956). In most experiments with the bromo-compound, the time required to count the organ necessitated a decay correction, calculated from the known half-life of 82Br-bromine (36 ? 0*2 hours). […]

[3] = for injected compound in urine: 5 mg i.v.
From the text: OPO3Na2 OPO3Na2 OP03H2 ICOH3 CH3 CH3 131I I 82Br CH3 1311 OPO3Na2 OPO3Na2 OP03H2 I II III METHODS AND MATERIALS Counting.-y-emission from the halogens was the basis of detection. The simple technique of placing samples of the organs under a shielded counter could not be used since variations in the thickness of the organs would vary the sample- counter distance, leading to considerable counting errors. This type of error was reduced by locating the sample on a thin aluminium tray midway between two G-10-Pb glass-covered Geiger-Muller tubes in copper sheaths placed 10 cm. apart in a castle of 2 inch lead and connected in parallel to the same scaler. The 50 D. H. MARRIAN AND D. R. MAXWELL sensitivity of the arrangement was about 9000 c.p.m./,tC 52Br. Samples and backgrounds were counted to a standard error of 5 per cent or less. […] The hydroscopic salt (II) was dissolved in 0 9 per cent saline and the concentration determined by ultraviolet spectroscopy (absorption maxima at 232m,u. (M = 70,000) and 290 m,u. (M = 5,800) in 0-01N- hydrochloric acid). […] Exposure to chlorine vapour caused red spots of bromofluoroscein to appear on a yellow background. […] The iodinated compound (III), was dissolved in 0 9 per cent saline and neutralised by addition of sodium hydroxide solution. The purity of the solution was determined by paper electrophoresis at pH 7 (Markham and Smith, 1952). This clearly separated the organic compound from iodide ion, the former being detected by ultraviolet photography and the latter by spraying with starch solution and exposure to chlorine vapour. […] It was dissolved in 0 9 per cent saline before injection. […] C. for 4 hours at pH 4, 6, 7 and 9 and the reaction mixtures examined by paper electrophoresis. […] Animal experiments Rats carring a Walker carcinoma were used as previously described (Marrian and Maxwell, 1956). […] The radioactivity of these planchettes when the organs were being counted was used to calculate the differential absorption ratio (D.A.R.), (Marrian and Maxwell, 1956). In most experiments with the bromo-compound, the time required to count the organ necessitated a decay correction, calculated from the known half-life of 82Br-bromine (36 ? 0*2 hours). […] Upper curve: single counter. Lower curve: double counter. Ordinate: Percentage error in the count.

chick fibroblasts = conditions: cited from earlier work
[4] = set-up: method as in Mitchell, 1955; Marrian and Maxwell, 1956; conditions: after intravenous injection; ref Mitchell, 1955; Marrian and Maxwell, 1956; cited from earlier work
[5] = Attempted exchange reactions with ammonium 82Br-bromide in vitro; assay type: physicochemical; conditions: reactants in molar ratio; lower detection limit 2.0 per cent
From the text: as §1

## Cc1c([82Br])c(OP(=O)([O-])[O-])c2ccccc2c1OP(=O)([O-])[O-].[Na+].[Na+].[Na+].[Na+] [II, tetrasodium 2-methyl-3-82Br-bromo-I: 4-naphthohydroquinone diphosphate]
[1]; 1 mg i.v., only exceeded by stomach and contents
  D.A.R. of the tumour compared with other organs: consistently higher than any of the above organs
[2]; 1 mg i.v.
  plasma share of the radioactivity of the whole blood: ~67 per cent
[2]; after 30 minutes, 1 mg i.v.
  radioactivity associated with the blood: about 15 per cent of the injected dose
[2]; of a 1 mg (10.6 uC) dose, during 48 hours
  radioactivity excreted in the urine: 30-35 per cent
[3]; 6 hours after injection of 10 mg
  form of radioactivity in stomach contents (paper electrophoresis): present as bromide ion
[3]; rat given 5 mg intravenously
  form of radioactivity in urine (paper chromatography): most of the radioactivity was present as bromide ion
[3]; urine collected from 0 to 2 hours
  injected compound in urine: small amounts
[3]; urine collected from 2 to 6 hours after injection
  injected compound in urine: None of the injected compound could be detected
Chick fibroblasts; ref Friedmann, Marrian and Simon-Reuss, 1952
  antimitotic properties: established

## Cc1c(C)c(OP(=O)(O)O)c([131I])c([131I])c1OP(=O)(O)O [III, 2: 3-dimethyl-5: 6-di-1311-iodo-I: 4-benzohydroquinone diphosphate]
[1]; 10 mg
  radioactivity of the thyroid: no more radioactivity than the surrounding tissue
[3]; 10 mg, by comparison with reported iodide distribution
  form of the label half an hour after injection: much of the label derived from compound (III) is present as free iodide ion
[3]; 10 mg, first 3 hours
  iodide ion in stomach contents and urine (paper electrophoresis): contain large amounts of iodide ion
Chick fibroblasts; same test, ref Simon-Reuss, unpublished
  antimitotic properties: inactive

## Cc1cc(OP(=O)(O)O)c2ccccc2c1OP(=O)(O)O [Synkavit, tetrasodium 2-methyl-I: 4-naphthohydro-quinone diphosphate]
[4]
  accumulation in tumour tissue: can accumulate in tumour tissue for short periods

## Cc1c(Br)c(OP(=O)([O-])[O-])c2ccccc2c1OP(=O)([O-])[O-].[Na+].[Na+].[Na+].[Na+] [Tetrasodium 2-methyl-3-bromo-1 4-naphthohydroquinone diphosphate]
[5]
  exchange with ammonium 82Br-bromide: no exchange could be detected
